# Values of other authors as cited in patent US20250319022A1, “CONCENTRATED SOLUTIONS COMPRISING SODIUM 5,10-METHYLENE-(6R)-TETRAHYDROFOLATE” (Merck Patent GMBH, priority 2022, published 2025).
smiles,measurement,setting,value
"Nc1nc2c(c(=O)[nH]1)N1CN(c3ccc(C(=O)N[C@@H](CCC(=O)O)C(=O)O)cc3)C[C@H]1CN2 [5,10-methylene-(6R,S)-tetrahydrofolic acid]",purity after 7 hours,7 hours after dissolution,84%
same,purity after 24 hours compared to the starting purity (% normalized purity),24 hours following dissolution in water,44.9%
same,loss of purity per hour (degradation rate),"reconstituted lyophilizate, linear regression of stability profile",2.3 % purity per hour
